Ki data for 25 compounds are collected here from US8940724B2, “Quinoline derivitives and their uses” (Amgen Inc., priority 2009, dated 2015).

T1 sequence (O00329 whole entry): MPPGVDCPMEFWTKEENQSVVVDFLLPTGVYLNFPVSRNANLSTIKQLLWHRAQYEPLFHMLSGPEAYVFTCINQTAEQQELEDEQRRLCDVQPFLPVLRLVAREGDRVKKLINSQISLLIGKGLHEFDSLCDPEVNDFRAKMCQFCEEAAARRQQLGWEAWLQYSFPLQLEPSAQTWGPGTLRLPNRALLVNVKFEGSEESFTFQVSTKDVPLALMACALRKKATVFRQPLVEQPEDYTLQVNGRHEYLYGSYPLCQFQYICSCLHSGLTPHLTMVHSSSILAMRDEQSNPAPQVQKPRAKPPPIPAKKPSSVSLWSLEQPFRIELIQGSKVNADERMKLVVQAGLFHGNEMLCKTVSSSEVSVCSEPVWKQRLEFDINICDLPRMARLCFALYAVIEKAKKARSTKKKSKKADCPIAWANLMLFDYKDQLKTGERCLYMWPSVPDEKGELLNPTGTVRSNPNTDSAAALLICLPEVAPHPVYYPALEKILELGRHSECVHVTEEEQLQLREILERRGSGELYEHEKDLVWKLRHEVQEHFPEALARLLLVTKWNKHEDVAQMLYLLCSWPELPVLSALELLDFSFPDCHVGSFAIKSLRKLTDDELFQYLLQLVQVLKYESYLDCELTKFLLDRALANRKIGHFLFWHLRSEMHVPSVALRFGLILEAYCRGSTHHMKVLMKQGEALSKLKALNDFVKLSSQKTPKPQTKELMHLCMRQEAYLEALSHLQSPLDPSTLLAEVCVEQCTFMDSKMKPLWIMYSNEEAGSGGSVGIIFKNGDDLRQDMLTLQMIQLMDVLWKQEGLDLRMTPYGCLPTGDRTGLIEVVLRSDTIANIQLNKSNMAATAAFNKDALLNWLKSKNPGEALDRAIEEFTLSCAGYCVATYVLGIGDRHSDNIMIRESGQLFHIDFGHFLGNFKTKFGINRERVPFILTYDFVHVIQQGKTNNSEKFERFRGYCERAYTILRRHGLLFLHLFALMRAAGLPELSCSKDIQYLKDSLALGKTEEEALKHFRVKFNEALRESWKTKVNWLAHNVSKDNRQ
T1 sequence (P27986 whole entry partner): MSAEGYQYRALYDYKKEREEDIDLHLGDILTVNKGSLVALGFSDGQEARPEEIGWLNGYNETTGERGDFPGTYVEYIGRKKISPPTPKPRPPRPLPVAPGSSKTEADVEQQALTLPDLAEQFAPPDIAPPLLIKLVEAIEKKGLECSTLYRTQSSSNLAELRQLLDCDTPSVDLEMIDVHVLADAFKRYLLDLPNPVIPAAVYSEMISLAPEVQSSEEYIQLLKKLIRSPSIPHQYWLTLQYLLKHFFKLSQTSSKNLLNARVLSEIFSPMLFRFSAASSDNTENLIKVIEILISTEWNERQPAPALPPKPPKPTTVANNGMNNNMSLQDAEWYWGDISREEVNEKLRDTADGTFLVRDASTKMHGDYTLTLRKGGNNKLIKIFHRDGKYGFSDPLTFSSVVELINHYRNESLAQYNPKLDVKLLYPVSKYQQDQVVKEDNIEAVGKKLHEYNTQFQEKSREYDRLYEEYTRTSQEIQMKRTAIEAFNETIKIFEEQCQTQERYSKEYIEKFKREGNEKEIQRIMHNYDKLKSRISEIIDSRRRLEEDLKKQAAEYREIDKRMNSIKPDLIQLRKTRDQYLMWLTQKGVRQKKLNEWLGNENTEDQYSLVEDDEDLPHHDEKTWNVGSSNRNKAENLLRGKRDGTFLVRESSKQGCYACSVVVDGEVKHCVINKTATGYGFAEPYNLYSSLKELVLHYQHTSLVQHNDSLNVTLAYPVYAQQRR

The assay addresses T1, PI3Kδ (Homo sapiens, UniProt O00329).
T1 construct: Full length p110 subunits of PI3k α, β and δ, N-terminally labeled with polyHis tag; polyHis (N); made in house; host or cells: Sf9 insect cells (baculovirus)
The experiment in a line: PI3Kδ Alphascreen assay. The assay is classed as biochemical. (Bead proximity is the source of the signal in Alpha formats.)
What is called Ki is the equilibrium dissociation constant of an inhibitor or competing ligand from its target. Low readings indicate tighter binding, high ones weaker binding. Compound `Cc1c(-c2cccnc2)nc2cc(F)cc(F)c2c1Nc1cc(N2CCOC[C@@H]2C)cnc1N1CCOCC1` [5,7-difluoro-3-methyl-N-(5-((3S)-3-methyl-4-morpholinyl)-2-(4-morpholinyl)-3-pyridinyl)-2-(3-pyridinyl)-4-quinolinamine] showed a Ki of 21.4 nM.

As to `COc1ccccc1-c1ncc(N2CCOCC2)cc1Nc1c(C)c(-c2ccccn2)nc2cc(F)cc(F)c12` [5,7-difluoro-N-(2-(2-methoxyphenyl)-5-(4-morpholinyl)-3-pyridinyl)-3-methyl-2-(2-pyridinyl)-4-quinolinamine], affinity was put at a Ki of 8.53 nM.

As to `COc1cc(C)c(-c2ncc(N3CCOCC3)cc2Nc2c(C)c(-c3ccccn3)nc3cc(F)cc(F)c23)c(C)c1` [5,7-difluoro-N-(2-(4-methoxy-2,6-dimethylphenyl)-5-(4-morpholinyl)-3-pyridinyl)-3-methyl-2-(2-pyridinyl)-4-quinolinamine], affinity was put at a Ki of 0.972 nM.

`COc1ccc(-c2ncc(N3CCOCC3)cc2Nc2c(C)c(-c3cc(C)ccn3)nc3cc(F)cc(F)c23)cc1` [5,7-difluoro-N-(2-(4-methoxyphenyl)-5-(4-morpholinyl)-3-pyridinyl)-3-methyl-2-(4-methyl-2-pyridinyl)-4-quinolinamine] yielded a Ki of 5.98 nM.

`COc1cncc(-c2ccc(N3CCOCC3)cc2Nc2c(C)c(-c3ccccn3)nc3cc(F)cc(F)c23)c1` [5,7-difluoro-N-(2-(5-methoxy-3-pyridinyl)-5-(4-morpholinyl)-phenyl)-3-methyl-2-(2-pyridinyl)-4-quinolinamine] gave an inhibition constant (Ki) of 0.627 nM.

`COc1ccc(-c2ccc(N3CCOCC3)cc2Nc2c(C)c(-c3ccccc3S(C)(=O)=O)nc3cc(F)cc(F)c23)cn1` [5,7-difluoro-N-(2-(6-methoxy-3-pyridinyl)-5-(4-morpholinyl)-phenyl)-3-methyl-2-(2-(methylsulfonyl)phenyl)-4-quinolinamine] showed an inhibition constant Ki of 2.73 nM.

For the compound `COc1ccc(-c2ccc(N3CCOCC3)cc2Nc2c(C)c(-c3ccccn3)nc3cc(F)cc(F)c23)cn1` [5,7-difluoro-N-(2-(6-methoxy-3-pyridinyl)-5-(4-morpholinyl)-phenyl)-3-methyl-2-(2-pyridinyl)-4-quinolinamine], the inhibition constant (Ki) was found to be 3.19 nM.

The compound `COc1ccc(-c2ccc(N3CCOCC3)cc2Nc2c(C)c(-c3cc(C)ccn3)nc3cc(F)cc(F)c23)cn1` [5,7-difluoro-N-(2-(6-methoxy-3-pyridinyl)-5-(4-morpholinyl)-phenyl)-3-methyl-2-(4-methyl-2-pyridinyl)-4-quinolinamine] registered a Ki of 3.59 nM.

Compound `COc1ccc(-c2ccc(N3CCOCC3)cc2Nc2c(C)c(-c3ccccn3)nc3cc(F)cc(F)c23)cc1` [5,7-difluoro-N-(4′-methoxy-4-(4-morpholinyl)-2-biphenylyl)-3-methyl-2-(2-pyridinyl)-4-quinolinamine] registered a Ki of 38.5 nM.

As for `Cc1c(-c2ccccn2)nc2cccc(F)c2c1Nc1cc(N2CCOCC2)ccc1S(C)(=O)=O` [5-fluoro-3-methyl-N-(2-(methylsulfonyl)-5-(4-morpholinyl)-phenyl)-2-(2-pyridinyl)-4-quinolinamine], the Ki was determined as 0.485 nM. This Ki is about 79-fold lower than that of the compound before.

Compound `Cc1c(-c2cc([N+](=O)[O-])ccc2F)nc2cc(F)ccc2c1Nc1cncc(N2CCOCC2)c1` [7-fluoro-2-(2-fluoro-5-nitrophenyl)-3-methyl-N-(5-(4-morpholinyl)-3-pyridinyl)-4-quinolinamine] showed an inhibition constant (Ki) of 47.5 nM. Compared with the last compound, the Ki is about 98-fold higher.

In turn, `Cc1ccnc(-c2nc3c(Cl)cccc3c(Nc3cncc(N4CCOCC4)c3)c2C)c1` [8-chloro-3-methyl-2-(4-methyl-2-pyridinyl)-N-(5-(4-morpholinyl)-3-pyridinyl)-4-quinolinamine] returned a Ki of 2.39 nM. Compared with the last compound, the Ki is about 20-fold lower.

Compound `Cc1c(-c2ccccn2)nc2c(Cl)cccc2c1Nc1cncc(N2CCOCC2)c1` [8-chloro-3-methyl-N-(5-(4-morpholinyl)-3-pyridinyl)-2-(2-pyridinyl)-4-quinolinamine] registered a Ki of 7.45 nM.

As for `Cc1ccnc(-c2nc3c(Cl)cccc3c(Nc3cc(N4CCOCC4)cnc3N3CCOCC3)c2C)c1` [8-chloro-N-(2,5-di-4-morpholinyl-3-pyridinyl)-3-methyl-2-(4-methyl-2-pyridinyl)-4-quinolinamine], the Ki was found to be 9.49 nM. The Ki values of the last two compounds are within 1.5-fold of each other.

For `Cc1c(-c2ccccn2)nc2c(Cl)c(F)cc(F)c2c1Nc1cc(N2CCOCC2)cnc1N1CCOCC1` [8-chloro-N-(2,5-di-4-morpholinyl-3-pyridinyl)-5,7-difluoro-3-methyl-2-(2-pyridinyl)-4-quinolinamine], the Ki is 2.85 nM.

Turning to `Cc1c(-c2ccccn2)nc2c(Cl)ccc(F)c2c1Nc1cc(N2CCOCC2)cnc1N1CCOCC1` [8-chloro-N-(2,5-di-4-morpholinyl-3-pyridinyl)-5-fluoro-3-methyl-2-(2-pyridinyl)-4-quinolinamine], the affinity, expressed as Ki, was 2.57 nM.

For `Cc1c(-c2ccccn2)nc2c(Cl)c(F)ccc2c1Nc1cc(N2CCOCC2)cnc1N1CCOCC1` [8-chloro-N-(2,5-di-4-morpholinyl-3-pyridinyl)-7-fluoro-3-methyl-2-(2-pyridinyl)-4-quinolinamine], the Ki worked out at 22.6 nM.

`Cc1c(-c2cc([C@@H](C)O)ccc2S(C)(=O)=O)nc2cc(F)cc(F)c2c1Nc1cncc(N2CCOCC2)c1` [(1R)-1-(3-(5,7-difluoro-3-methyl-4-((5-(4-morpholinyl)-3-pyridinyl)amino)-2-quinolinyl)-4-(methylsulfonyl)phenyl)-ethanol] showed a Ki of 1.57 nM.

As to `Cc1c(-c2ccccn2)nc2cc(F)cc(F)c2c1Nc1cc(C2=CCOCC2)cnc1C1=CCOCC1` [N-(2,5-di-3,6-dihydro-2H-pyran-4-yl-3-pyridinyl)-5,7-difluoro-3-methyl-2-(2-pyridinyl)-4-quinolinamine], the affinity corresponds to a Ki of 3.08 nM.

Take `C=Cc1ccnc(-c2nc3cc(F)cc(F)c3c(Nc3cc(N4CCOCC4)cnc3N3CCOCC3)c2C)c1` [N-(2,5-di-4-morpholinyl-3-pyridinyl)-2-(4-ethenyl-2-pyridinyl)-5,7-difluoro-3-methyl-4-quinolinamine]: affinity was put at a Ki of 119 nM.

In the case of `CCOc1ccc(-c2nc3cc(F)cc(F)c3c(Nc3cc(N4CCOCC4)cnc3N3CCOCC3)c2C)cn1` [N-(2,5-di-4-morpholinyl-3-pyridinyl)-2-(6-ethoxy-3-pyridinyl)-5,7-difluoro-3-methyl-4-quinolinamine], the inhibition constant (Ki) is 25.5 nM.

The compound `Cc1c(-c2ccccc2F)nc2cc(F)cc(F)c2c1Nc1cc(N2CCOCC2)cnc1N1CCOCC1` [N-(2,5-di-4-morpholinyl-3-pyridinyl)-5,7-difluoro-2-(2-fluorophenyl)-3-methyl-4-quinolinamine] came in with an inhibitory constant (Ki) of 6.22 nM. Against the preceding compound, the Ki is about 4.1-fold lower.

`COc1cc(-c2nc3cc(F)cc(F)c3c(Nc3cc(N4CCOCC4)cnc3N3CCOCC3)c2C)ccn1` [N-(2,5-di-4-morpholinyl-3-pyridinyl)-5,7-difluoro-2-(2-methoxy-4-pyridinyl)-3-methyl-4-quinolinamine]: the Ki amounted to 33.4 nM.

With `Cc1c(-c2ccc(F)nc2)nc2cc(F)cc(F)c2c1Nc1cc(N2CCOCC2)cnc1N1CCOCC1` [N-(2,5-di-4-morpholinyl-3-pyridinyl)-5,7-difluoro-2-(6-fluoro-3-pyridinyl)-3-methyl-4-quinolinamine], the affinity, expressed as Ki, was 18.5 nM.

`COc1ccc(-c2nc3cc(F)cc(F)c3c(Nc3cc(N4CCOCC4)cnc3N3CCOCC3)c2C)cn1` [N-(2,5-di-4-morpholinyl-3-pyridinyl)-5,7-difluoro-2-(6-methoxy-3-pyridinyl)-3-methyl-4-quinolinamine]: affinity was put at a Ki of 33.2 nM.
